# The supplement of paper PMC11208160
# Assay: recombinant UMI read abundance after kanamycin selection (control-corrected) (log10(CPM+1)); higher = more efficient recombination; extreme values may be limits of the assay; sequences stand for … in AGTGCAGAGAAAATCGGCCAGTTTTCTCTGCCTGCAGTCCGCATGCCGTGGGACCCCTTGGGTTCTAACCTGTTGCCTAGATTTATGCAGCGGACTGCCTTTCTCCCAAAGTGATAAACCGG…AGGTTGGTTTCACT; site = the 11-nt donor
# In short: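 Each donor and donor-binding-loop pair was tracked by a 12-nt UMI on a plasmid carrying a promoterless kanamycin gene. With a second plasmid supplying a fixed target and T7-inducible IS621 bridge recombinase, the pool was plated in Escherichia coli on IPTG (0.07 mM) plus kanamycin or unselected. Sequencing of recombinant UMIs across the donor–target junction gave counts expressed as log10(CPM+1) after replicate averaging and control-derived scaling.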
row,Sequence,recombinant UMI read abundance (log10)
1,AGGTCCCCATGGACCGGTTTTCCCGGTAATCCGTATTTGTG (site AGGTGCCCTCA),0.0373
2,AGGTCCCCATGGACCGGTTTTCCCGGTAATCCGTATTTGTG (site AGGTTCCCTCA),0.00496
3,AGGTCCTCATGGACCGGTTTTCCCGGTAATCCGTATTTGGG (site AGGTCCTCTCC),0.0176
4,AGGTGACCATGGACCGGTTTTCCCGGTAATCCGTATTTGCC (site AGGTGACCTGG),0
5,AGGTGCACATGGACCGGTTTTCCCGGTAATCCGTATTTGAA (site AGGTGCACTTT),0.73
6,AGGTGCCCATGGACCGGTTTTCCCGGTAATCCGTATTTGTG (site AGGTACCCTCA),0.015
7,AGGTGCCCATGGACCGGTTTTCCCGGTAATCCGTATTTGTG (site AGGTCCCCTCA),0.0213
8,AGGTGCCCATGGACCGGTTTTCCCGGTAATCCGTATTTGTG (site AGGTGCCCTCA),0.0128
9,AGGTGCCCATGGACCGGTTTTCCCGGTAATCCGTATTTGTG (site AGGTTCCCTCA),0.755
10,AGGTGGTCATGGACCGGTTTTCCCGGTAATCCGTATTTGCA (site AGGTGGTCTTG),2.62
11,AGGTTCCCATGGACCGGTTTTCCCGGTAATCCGTATTTGAG (site AGGTTCCCTCA),0
12,AGGTTCCCATGGACCGGTTTTCCCGGTAATCCGTATTTGAG (site AGGTTCCCTCC),0.0175
13,AGGTTCCCATGGACCGGTTTTCCCGGTAATCCGTATTTGAG (site AGGTTCCCTCG),0.00792
14,AGGTTCCCATGGACCGGTTTTCCCGGTAATCCGTATTTGAG (site AGGTTCCCTCT),0.00255
15,AGGTTCCCATGGACCGGTTTTCCCGGTAATCCGTATTTGTC (site AGGTTCCCTAA),0.0146
16,AGGTTCCCATGGACCGGTTTTCCCGGTAATCCGTATTTGTC (site AGGTTCCCTCA),0.0034
17,AGGTTCCCATGGACCGGTTTTCCCGGTAATCCGTATTTGTC (site AGGTTCCCTGA),0
18,AGGTTCCCATGGACCGGTTTTCCCGGTAATCCGTATTTGTC (site AGGTTCCCTTA),0
19,AGGTTCCCATGGACCGGTTTTCCCGGTAATCCGTATTTGTG (site AAGTTCCCTCA),0.0108
20,AGGTTCCCATGGACCGGTTTTCCCGGTAATCCGTATTTGTG (site ACGTTCCCTCA),0.0097
21,AGGTTCCCATGGACCGGTTTTCCCGGTAATCCGTATTTGTG (site AGATTCCCTCA),0.438
22,AGGTTCCCATGGACCGGTTTTCCCGGTAATCCGTATTTGTG (site AGCTTCCCTCA),0.0211
23,AGGTTCCCATGGACCGGTTTTCCCGGTAATCCGTATTTGTG (site AGGATCCCTCA),0.163

row,Sequence,recombinant UMI read abundance (log10)
1,AGGTTCCCATGGACCGGTTTTCCCGGTAATCCGTATTTGTG (site AGGCTCCCTCA),0.149
2,AGGTTCCCATGGACCGGTTTTCCCGGTAATCCGTATTTGTG (site AGGGTCCCTCA),0.0158
3,AGGTTCCCATGGACCGGTTTTCCCGGTAATCCGTATTTGTG (site AGGTACCCTCA),0.00814
4,AGGTTCCCATGGACCGGTTTTCCCGGTAATCCGTATTTGTG (site AGGTCCCCTCA),0.019
5,AGGTTCCCATGGACCGGTTTTCCCGGTAATCCGTATTTGTG (site AGGTGCCCTCA),0.018
6,AGGTTCCCATGGACCGGTTTTCCCGGTAATCCGTATTTGTG (site AGGTTACCTCA),0.00985
7,AGGTTCCCATGGACCGGTTTTCCCGGTAATCCGTATTTGTG (site AGGTTCACTCA),0.0115
8,AGGTTCCCATGGACCGGTTTTCCCGGTAATCCGTATTTGTG (site AGGTTCCCTAA),0.00843
9,AGGTTCCCATGGACCGGTTTTCCCGGTAATCCGTATTTGTG (site AGGTTCCCTCA),0.152
10,AGGTTCCCATGGACCGGTTTTCCCGGTAATCCGTATTTGTG (site AGGTTCCCTCC),0.014
11,AGGTTCCCATGGACCGGTTTTCCCGGTAATCCGTATTTGTG (site AGGTTCCCTCG),0.328
12,AGGTTCCCATGGACCGGTTTTCCCGGTAATCCGTATTTGTG (site AGGTTCCCTCT),0.0108
13,AGGTTCCCATGGACCGGTTTTCCCGGTAATCCGTATTTGTG (site AGGTTCCCTGA),0
14,AGGTTCCCATGGACCGGTTTTCCCGGTAATCCGTATTTGTG (site AGGTTCCCTTA),0
15,AGGTTCCCATGGACCGGTTTTCCCGGTAATCCGTATTTGTG (site AGGTTCGCTCA),0.0252
16,AGGTTCCCATGGACCGGTTTTCCCGGTAATCCGTATTTGTG (site AGGTTCTCTCA),0.634
17,AGGTTCCCATGGACCGGTTTTCCCGGTAATCCGTATTTGTG (site AGGTTGCCTCA),0.0234
18,AGGTTCCCATGGACCGGTTTTCCCGGTAATCCGTATTTGTG (site AGGTTTCCTCA),0.00972
19,AGGTTCCCATGGACCGGTTTTCCCGGTAATCCGTATTTGTG (site AGTTTCCCTCA),0.0518
20,AGGTTCCCATGGACCGGTTTTCCCGGTAATCCGTATTTGTG (site ATGTTCCCTCA),0.0101
21,AGGTTCCCATGGACCGGTTTTCCCGGTAATCCGTATTTGTG (site CGGTTCCCTCA),0.0101
22,AGGTTCCCATGGACCGGTTTTCCCGGTAATCCGTATTTGTG (site GGGTTCCCTCA),0.0086
23,AGGTTCCCATGGACCGGTTTTCCCGGTAATCCGTATTTGTG (site TGGTTCCCTCA),0.00656

row,Sequence,recombinant UMI read abundance (log10)
1,AGTAAGGCATGGACCGGTTTTCCCGGTAATCCGTATTTGAT (site AGTAAGGCTAT),2.27
2,AGTAATTCATGGACCGGTTTTCCCGGTAATCCGTATTTGAC (site AGTAATTCTGT),0.17
3,AGTACACCATGGACCGGTTTTCCCGGTAATCCGTATTTGAG (site AGTACACCTCT),0.0245
4,AGTAGCCCATGGACCGGTTTTCCCGGTAATCCGTATTTGGA (site AGTAGCCCTTC),0.01
5,AGTCCATCATGGACCGGTTTTCCCGGTAATCCGTATTTGGG (site AGTCCATCTCC),0.00252
6,AGTCCCACATGGACCGGTTTTCCCGGTAATCCGTATTTGGA (site AGTCCCACTTC),0.296
7,AGTCCTTCATGGACCGGTTTTCCCGGTAATCCGTATTTGGG (site AGTCCTTCTCC),0.0141
8,AGTCTAGCATGGACCGGTTTTCCCGGTAATCCGTATTTGTT (site AGACTAGCTAA),0.0182
9,AGTCTAGCATGGACCGGTTTTCCCGGTAATCCGTATTTGTT (site AGCCTAGCTAA),0.0159
10,AGTCTAGCATGGACCGGTTTTCCCGGTAATCCGTATTTGTT (site AGGCTAGCTAA),0.0213
11,AGTCTAGCATGGACCGGTTTTCCCGGTAATCCGTATTTGTT (site AGTCTAGCTAA),0.0147
12,AGTCTGACATGGACCGGTTTTCCCGGTAATCCGTATTTGGA (site AGTCTGACTTC),0.729
13,AGTCTTTCATGGACCGGTTTTCCCGGTAATCCGTATTTGAC (site AGACTTTCTGT),0
14,AGTCTTTCATGGACCGGTTTTCCCGGTAATCCGTATTTGAC (site AGCCTTTCTGT),0.743
15,AGTCTTTCATGGACCGGTTTTCCCGGTAATCCGTATTTGAC (site AGGCTTTCTGT),0
16,AGTCTTTCATGGACCGGTTTTCCCGGTAATCCGTATTTGAC (site AGTCTTTCTGT),0
17,AGTGACTCATGGACCGGTTTTCCCGGTAATCCGTATTTGCG (site AGTGACTCTCG),2.88
18,AGTGAGACATGGACCGGTTTTCCCGGTAATCCGTATTTGGG (site AGTGAGACTCC),0.00984
19,AGTGATCCATGGACCGGTTTTCCCGGTAATCCGTATTTGGT (site AGTGATCCTAC),0.0964
20,AGTGCGACATGGACCGGTTTTCCCGGTAATCCGTATTTGCA (site AGTGCGACTTG),1.38
21,AGTGGAACATGGACCGGTTTTCCCGGTAATCCGTATTTGTC (site AGTGGAACTGA),2.3
22,AGTGGCCCATGGACCGGTTTTCCCGGTAATCCGTATTTGCG (site AGTGGCCCTCG),0.0207
